In data set [1] the target is T1, PD-L1 (Homo sapiens, UniProt Q9NZQ7). Briefly: PD-L1 quantification by flow cytometry in A-549. It is filed as cell-based. More on the design: endogenous in cells; host or cells: A-549 cancer cells. The following applies: A-549, 10 μM, 24 h, referred to control (DMSO). How it is done:
(§1) We evaluated the effect of the selected compounds on PD-L1 and on c-Myc proteins by flow cytometry after 24 h treatment at 10 μM concentration of compounds. Both, PD-L1 and c-Myc were relatively determined using DMSO treated cells as a negative control and BMS-8 as a positive one.
(§2) For the detection of total PD-L1 and c-Myc, cancer cells were seeded (3 × 10^5 cells/well) in 6-well plates and were incubated with the corresponding compounds for 24 h. Then they were collected, fixed, treated with 0.5% Triton^TM X-100 and stained with Alexa Fluor® 647 Rabbit monoclonal Anti-PD-L1 (ab215251) and FITC Rabbit monoclonal anti-c-Myc (ab223913).
(§3) We also checked results performing ELISA tests. For ELISA tests, lysates were collected, protein quantification was carried out by Bradford test and, then, PD-L1 and c-Myc were quantified using Human PD-L1 ELISA Kit 28-8 (ab214565) and c-Myc (Total) Human ELISA Kit (KHO2041), respectively, according to the manufacturer’s instructions.
Background: In flow cytometry, cells or beads pass a laser one at a time.

In data set [2] the test system is c-Myc. Briefly: c-Myc quantification by flow cytometry in HT-29. It is filed as cell-based, human. As to conditions: HT-29, 10 μM, 24 h, referred to control (DMSO). The method, then:
as §1, §2, §3

The test system of a further data set is HT-29 cells. Briefly: Cell proliferation evaluation in co-cultures: HT-29 with Jurkat T cells. As to conditions: 24 h. Type of data set: cell-based, human. How it is done: We also studied the effect of Compounds 16, 23, 26 and 33 on tumor cell proliferation in the presence of PD-1 expressing Jurkat T-cells. For this assay, first interferon γ stimulated HT-29 cells were treated for 24 h with the selected compounds at 10 µM in presence of Jurkat T cells. Then, living cells were counted using trypan blue and a Neubauer chamber and by flow cytometry.
(§4) In 12-well plates, 10^5 HT-29 cells per well were seeded and incubated for 24 h with cell culture medium supplemented with IFN-γ (10 ng/mL; human, Invitrogen®) then medium was change by one containing 4 × 10^5 Jurkat T cells per well and 10 μM of the corresponding compound or DMSO for the control. After 24 h of incubation, supernatants were collected to determine Jurkat T cell living cells and, on the other hand, HT-29 cells were collected with trypsin. Both types of suspension cells were counted with the Neubauer chamber and trypan blue and also by flow cytometry.

Data set [3] deals with c-Myc. Briefly: c-Myc quantification by flow cytometry in A-549. It is filed as cell-based, human. The following applies: A-549, 10 μM, 24 h, referred to control (DMSO). The method, then: as §1, §2, §3
Data set [4] addresses T2, VEGFR-2 (Homo sapiens, UniProt P35968). Briefly: VEGFR-2 quantification by flow cytometry in HMEC-1. It is filed as cell-based. Also noted: Both membrane and total VEGFR-2 were relatively determined using dimethyl sulfoxide (DMSO) treated cells as a negative control; endogenous in cells; host or cells: HMEC-1 (human microvascular endothelial cells). The following applies: 10 µM, 24 h, relative to DMSO control.
Protocol: (§5) We performed the study on both a HT-29 cancer cell line and a human microvessel endothelial cell line (HMEC-1). […] The effect of these selected derivatives on VEGFR-2, on HT-29 tumor cell line and on human microvessel endothelial cells (HMEC) was determined by flow cytometry technique. […] For these assays, cells were incubated for 24 h in the presence of the corresponding compounds at 10 µM concentration.

In a further data set the test system is Jurkat T cells. Briefly: Jurkat T cell proliferation and population distribution in co-cultures with HT-29. The following applies: co-cultured with HT-29, 10 μM, 24 h. It is filed as cell-based, human.
Excerpt: We also determine Jurkat T cell proliferation in those co-cultures from the corresponding media by flow cytometry. […] All samples provided similar population distribution except by those treated with Compound 16, in which an enhancement of size and complexity is observed.
Data provided in Figure 7 show the density of living Jurkat T cells in the treated co-cultures with HT-29. The graphics include cell distribution population by size and complexity in each case.
as §4

For data set [5], the target named is T2, VEGFR-2. Briefly: VEGFR-2 quantification by flow cytometry in HT-29. More on the design: Both membrane and total VEGFR-2 were relatively determined using dimethyl sulfoxide (DMSO) treated cells as a negative control; endogenous in cells; host or cells: HT-29 (colon adenocarcinoma) and HMEC-1 (human microvascular endothelial cells). It is filed as cell-based. The following applies: 24 h.
Protocol: as §5

The target of data set [6] is T1, PD-L1. Description: PD-L1 quantification by flow cytometry in HT-29. It is filed as cell-based. The following applies: HT-29, 10 μM, 24 h, referred to control (DMSO). The method, then:
as §1, §2, §3

Where [7] appears, read: HT-29, 10 µM, relative to DMSO control.

Each structure is given as a SMILES string.

T2 sequence (P35968 20-1356): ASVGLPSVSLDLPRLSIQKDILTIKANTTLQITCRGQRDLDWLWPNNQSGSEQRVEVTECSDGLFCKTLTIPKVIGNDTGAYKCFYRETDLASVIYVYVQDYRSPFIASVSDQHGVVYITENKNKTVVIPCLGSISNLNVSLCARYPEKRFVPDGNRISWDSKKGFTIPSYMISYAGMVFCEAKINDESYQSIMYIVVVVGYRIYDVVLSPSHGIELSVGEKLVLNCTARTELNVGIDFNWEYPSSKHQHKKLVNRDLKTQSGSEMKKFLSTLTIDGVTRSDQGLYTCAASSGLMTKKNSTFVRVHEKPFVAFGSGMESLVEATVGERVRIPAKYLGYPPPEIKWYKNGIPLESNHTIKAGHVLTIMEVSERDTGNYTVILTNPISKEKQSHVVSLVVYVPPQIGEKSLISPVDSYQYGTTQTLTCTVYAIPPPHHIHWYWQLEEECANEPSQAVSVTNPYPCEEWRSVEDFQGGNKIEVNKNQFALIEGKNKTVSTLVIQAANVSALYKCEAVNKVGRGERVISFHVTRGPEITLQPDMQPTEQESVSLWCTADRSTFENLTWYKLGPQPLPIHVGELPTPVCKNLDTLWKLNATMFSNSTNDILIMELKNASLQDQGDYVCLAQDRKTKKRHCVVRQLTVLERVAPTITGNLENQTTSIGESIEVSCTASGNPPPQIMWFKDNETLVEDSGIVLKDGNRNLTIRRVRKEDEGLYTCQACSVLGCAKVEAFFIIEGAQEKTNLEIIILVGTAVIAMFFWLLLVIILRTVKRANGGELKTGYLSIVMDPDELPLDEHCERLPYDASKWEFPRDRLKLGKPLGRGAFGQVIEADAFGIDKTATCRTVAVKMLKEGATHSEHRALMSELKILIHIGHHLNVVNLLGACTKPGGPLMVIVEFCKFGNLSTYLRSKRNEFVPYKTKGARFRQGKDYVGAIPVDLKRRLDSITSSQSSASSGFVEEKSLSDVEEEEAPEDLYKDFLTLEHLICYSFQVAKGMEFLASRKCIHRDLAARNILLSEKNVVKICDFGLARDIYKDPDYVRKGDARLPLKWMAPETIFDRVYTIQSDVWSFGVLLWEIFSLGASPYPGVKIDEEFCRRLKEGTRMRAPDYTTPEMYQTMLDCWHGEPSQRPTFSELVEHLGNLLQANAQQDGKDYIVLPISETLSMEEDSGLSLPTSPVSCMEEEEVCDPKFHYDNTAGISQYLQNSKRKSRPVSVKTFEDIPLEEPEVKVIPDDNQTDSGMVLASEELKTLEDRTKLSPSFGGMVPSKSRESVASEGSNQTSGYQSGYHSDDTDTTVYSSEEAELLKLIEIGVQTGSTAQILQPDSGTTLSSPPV
T1 sequence (Q9NZQ7 19-290): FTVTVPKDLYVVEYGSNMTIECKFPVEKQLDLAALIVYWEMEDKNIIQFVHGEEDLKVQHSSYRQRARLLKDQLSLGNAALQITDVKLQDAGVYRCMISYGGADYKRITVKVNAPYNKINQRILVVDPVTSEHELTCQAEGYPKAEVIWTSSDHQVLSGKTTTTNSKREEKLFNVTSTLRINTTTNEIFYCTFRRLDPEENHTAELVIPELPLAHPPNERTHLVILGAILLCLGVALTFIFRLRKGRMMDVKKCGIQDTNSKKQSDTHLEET

Consider `COc1ccc(/C=C\c2cccc(NC(=O)Nc3ccc(Br)cc3)c2)cc1` [Compound 16], for which the melting point (commonly the temperature, or range, at which the solid turns liquid) came to 173 °C. The “PD-L1 (%) relative expression” value on PD-L1 [1] came out at 23 ± 8%. Further, the “c-Myc (%) relative expression” value with c-Myc [2] turned out to be 41 ± 10%. Further, the inhibition (in general, the share of the control response that was lost under treatment) at 10 µM with HT-29 cells (Homo sapiens, HT-29, co-cultured with Jurkat T-cells) is about 90%. In addition, in the data set with HT-29 cells (IFN-γ stimulated HT-29 co-cultured with Jurkat T cells, 10 µM, five experiments), the “Living HT-29 cell proliferation (%)” value came out at 9%. Also, the “c-Myc (%) relative expression” value in the data set with c-Myc [3] stood at 29 ± 5%. At VEGFR-2 [4], the “Membrane VEGFR-2 (%)” value was found to be 45 ± 8% and the “Total VEGFR-2 (%)” value is reported as 59 ± 5%. Also, in the data set with Jurkat T cells, the “effect on Jurkat T cell proliferation” value is on record as “hardly affect proliferation of T cell”; the “effect on T cell size and complexity (morphology)” value is “an increase on their size and complexity”. The inhibition at 10 µM at VEGFR-2 [5] (10 µM, statement for HT-29 and HMEC-1, read-out: inhibition of both membrane and total VEGFR-2) was over 50%. For the same molecule, on VEGFR-2 [5] (setting [7]), the “Membrane VEGFR-2 (%)” value came to 39 ± 9% and the “Total VEGFR-2 (%)” value is recorded as 55 ± 10%. The “PD-L1 (%) relative expression” value at PD-L1 [6] turned out to be 17 ± 5%.

Source of the values: PMC8067507, “Aryl Urea Based Scaffolds for Multitarget Drug Discovery in Anticancer Immunotherapies” (Pharmaceuticals, 2021).
